{
  "source": "paper PMC7554770",
  "about": "“Develop a High-Throughput Screening Method to Identify C-P4H1 (Collagen Prolyl 4-Hydroxylase 1) Inhibitors from FDA-Approved Chemicals” (International Journal of Molecular Sciences, 2020)",
  "assay_type_in_all_cases": "biochemical",
  "key": {"[1]": {"biological_target": "T1, C-P4H1 (collagen prolyl 4-hydroxylase 1; P4HA1 alpha subunit) (Homo sapiens, UniProt P13674)", "T1 construct": "Flag-tagged P4HA1 and P4HB co-expressed in HEK-293FT cells, purified C-P4H1 tetramer; with P4HB (protein disulfide isomerase, beta subunit)", "T1 sequence (P13674 18-534)": "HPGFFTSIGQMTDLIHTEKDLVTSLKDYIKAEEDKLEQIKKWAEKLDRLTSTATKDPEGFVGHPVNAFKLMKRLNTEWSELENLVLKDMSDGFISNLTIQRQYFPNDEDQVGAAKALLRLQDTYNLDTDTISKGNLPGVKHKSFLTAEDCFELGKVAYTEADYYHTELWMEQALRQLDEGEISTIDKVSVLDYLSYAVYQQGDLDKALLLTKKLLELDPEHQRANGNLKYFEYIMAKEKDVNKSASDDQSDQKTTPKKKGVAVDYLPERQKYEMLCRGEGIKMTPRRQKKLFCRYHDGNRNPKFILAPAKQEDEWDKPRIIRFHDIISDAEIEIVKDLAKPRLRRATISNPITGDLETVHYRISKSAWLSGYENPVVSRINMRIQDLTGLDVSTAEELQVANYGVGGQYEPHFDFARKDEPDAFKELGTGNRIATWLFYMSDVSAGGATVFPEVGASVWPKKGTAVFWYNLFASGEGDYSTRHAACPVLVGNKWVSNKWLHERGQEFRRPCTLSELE", "T1 sequence (P07237 18-508 partner)": "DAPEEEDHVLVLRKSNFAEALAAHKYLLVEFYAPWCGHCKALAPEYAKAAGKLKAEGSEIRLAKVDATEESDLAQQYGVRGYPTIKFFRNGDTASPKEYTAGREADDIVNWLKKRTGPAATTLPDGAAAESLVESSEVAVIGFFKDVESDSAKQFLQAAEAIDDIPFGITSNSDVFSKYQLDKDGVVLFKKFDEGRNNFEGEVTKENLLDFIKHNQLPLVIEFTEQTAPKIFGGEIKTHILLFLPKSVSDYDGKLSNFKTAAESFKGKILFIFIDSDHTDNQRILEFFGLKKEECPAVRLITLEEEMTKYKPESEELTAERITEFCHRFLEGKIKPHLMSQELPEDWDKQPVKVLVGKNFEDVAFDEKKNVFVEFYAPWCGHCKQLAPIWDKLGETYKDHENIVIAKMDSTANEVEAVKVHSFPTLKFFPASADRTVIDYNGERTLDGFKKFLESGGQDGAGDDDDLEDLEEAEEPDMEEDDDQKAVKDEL", "assay": "Succinate-Glo Hydroxylase luminescence assay, dose response, with no-enzyme control"}, "[2]": {"biological_target": "T1, C-P4H1 (collagen prolyl 4-hydroxylase 1; P4HA1 alpha subunit)", "assay": "Succinate-Glo Hydroxylase luminescence assay, dose response, with no-enzyme control", "remark": "listed apart in the source"}, "[3]": {"biological_target": "T1, C-P4H1 (collagen prolyl 4-hydroxylase 1; P4HA1 alpha subunit)", "assay": "Succinate-Glo Hydroxylase assay, varied co-substrate concentration"}},
  "data": [
    {"molecule": "CCOC(=O)c1ccc(O)c(O)c1", "note": "[DHB, ethyl-3,4-dihydroxybenzoic acid]", "values": [
      {"measurement": "IC50", "setting": "[1]", "result": "~20", "unit": "µM"}
    ]},
    {"molecule": "C[C@H](Cc1cc2c(c(C(N)=O)c1)N(CCCO)CC2)NCCOc1ccccc1OCC(F)(F)F", "note": "[Silodosin]", "values": [
      {"measurement": "Succinate-Glo Hydroxylase luminescence assay, dose response, with no-enzyme cont", "setting": "[2]", "result": "Both drugs inhibited C-P4H1 activity in a dose-dependent manner (Figure 4B,D)."}
    ]},
    {"molecule": "Clc1ccccc1CN1CCc2sccc2C1", "note": "[Ticlopidine]", "values": [
      {"measurement": "Succinate-Glo Hydroxylase luminescence assay, dose response, with no-enzyme cont", "setting": "[2]", "result": "indicating that Silodosin and Ticlopidine specifically inhibited the C-P4H1 activity in vitro"}
    ]},
    {"molecule": "O=C(O)CCC(=O)C(=O)O", "note": "[α-KG, α-ketoglutarate]", "values": [
      {"measurement": "Succinate-Glo Hydroxylase assay, varied co-substrate concentration", "setting": "[3]", "result": "increased concentration of GPPG and α-KG induced luminescence assay in a dose-dependent manner"}
    ]}
  ]
}
